Reference: US7566712B2, “Biaryl piperazinyl-pyridine analogues” (Neurogen Corporation, priority 2003, dated 2009)

Target: T1, human capsaicin receptor (Homo sapiens, UniProt Q8NER1)
T1 construct: pBK-CMV expression construct encoding the full length human capsaicin receptor; expressed in transfected cells
Test: Calcium mobilization assay, determination of antagonist activity (Example 6)
Type: cell-based
Settings: Table II; IC50 determined as described in Example 6
In short: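 Antagonism measured as inhibition of capsaicin-evoked (final concentration = EC50, from an 8-point 1 nM–3 μM curve) Fluo-3 calcium signal in stable hVR1-HEK293 cells. Test compounds at 1–5 μM final, 0.5–6 h dark preincubation at room temperature. IC50 = concentration giving 50% reduction versus agonist-only response.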

T1 sequence (Q8NER1 whole entry): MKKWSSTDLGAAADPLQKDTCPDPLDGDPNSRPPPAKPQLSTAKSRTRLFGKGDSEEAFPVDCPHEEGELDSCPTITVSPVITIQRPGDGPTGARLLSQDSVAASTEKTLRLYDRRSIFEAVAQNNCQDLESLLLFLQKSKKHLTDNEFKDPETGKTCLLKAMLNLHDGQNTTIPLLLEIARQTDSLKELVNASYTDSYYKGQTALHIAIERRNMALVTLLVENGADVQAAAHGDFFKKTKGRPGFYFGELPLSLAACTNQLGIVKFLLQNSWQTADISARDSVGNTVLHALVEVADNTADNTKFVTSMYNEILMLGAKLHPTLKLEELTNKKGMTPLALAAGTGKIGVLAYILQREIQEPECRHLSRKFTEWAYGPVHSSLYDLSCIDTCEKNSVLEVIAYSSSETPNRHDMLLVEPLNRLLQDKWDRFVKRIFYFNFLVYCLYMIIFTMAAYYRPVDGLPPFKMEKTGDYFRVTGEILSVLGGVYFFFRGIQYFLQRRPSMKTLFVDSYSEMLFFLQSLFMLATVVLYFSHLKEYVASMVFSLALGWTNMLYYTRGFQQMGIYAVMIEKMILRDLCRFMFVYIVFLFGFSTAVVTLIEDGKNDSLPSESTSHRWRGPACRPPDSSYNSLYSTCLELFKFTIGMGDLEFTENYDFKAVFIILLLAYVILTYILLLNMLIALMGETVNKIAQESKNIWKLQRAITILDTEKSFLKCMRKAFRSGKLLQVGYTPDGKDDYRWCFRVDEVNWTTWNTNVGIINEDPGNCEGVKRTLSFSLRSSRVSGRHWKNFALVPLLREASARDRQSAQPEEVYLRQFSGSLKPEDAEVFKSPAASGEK

Row | SMILES | IC50 [µM]
1 | Cc1ccc(-c2cc(N3CCN(c4ncccc4C)C[C@H]3C)nc(N3CCOCC3)n2)cc1F [Example 494, 4-{4-(3-fluoro-4-methylphenyl)-6-[(2R)-2-methyl-4-(3-methylpyridin-2-yl)piperazin-1-yl]pyrimidin-2-yl}morpholine] | ≤ 1
2 | Cc1ccc(-c2cc(N3CCN(c4ncccc4C(F)(F)F)C[C@H]3C)nc(N3CCOCC3)n2)cc1F [Example 495, 4-(4-(3-fluoro-4-methylphenyl)-6-{(2R)-2-methyl-4-[3-(trifluoromethyl)pyridin-2-yl]piperazin-1-yl}pyrimidin-2-yl)morpholine] | ≤ 1
3 | Cc1ccc(-c2cc(N3CCN(c4ncccc4Cl)C[C@H]3C)nc(N3CCOCC3)n2)cc1F [Example 496, 4-[4-[(2R)-4-(3-chloropyridin-2-yl)-2-methylpiperazin-1-yl]-6-(3-fluoro-4-methylphenyl)pyrimidin-2-yl]morpholine] | ≤ 1
4 | Cc1cc(-c2cc(N3CCN(c4ncccc4C(F)(F)F)C[C@H]3C)nc(N3CCOCC3)n2)ccc1F [Example 497, 4-(4-(4-fluoro-3-methylphenyl)-6-{(2R)-2-methyl-4-[3-(trifluoromethyl)pyridin-2-yl]piperazin-1-yl}pyrimidin-2-yl)morpholine] | ≤ 1
5 | Cc1cc(-c2cc(N3CCN(c4ncccc4Cl)C[C@H]3C)nc(N3CCOCC3)n2)ccc1F [Example 498, 4-[4-[(2R)-4-(3-chloropyridin-2-yl)-2-methylpiperazin-1-yl]-6-(4-fluoro-3-methytphenyl)pyrimidin-2-yl]morpholine] | ≤ 1
6 | CC(C)c1cccc(-c2cc(N3CCN(c4ncccc4C#N)C[C@H]3C)nc(N3CCOCC3)n2)c1 [Example 499, 2-{(3R)-4-[6-(3-isopropylphenyl)-2-morpholin-4-ylpyrimidin-4-yl]-3-methylpiperazin-1-yl}nicotinonitrile] | ≤ 1
7 | Cc1cccnc1N1CCN(c2cc(-c3cccc(C(C)C)c3)nc(N3CCOCC3)n2)[C@H](C)C1 [Example 500, 4-{4-(3-isopropylphenyl)-6-[(2R)-2-methyl-4-(3-methylpyridin-2-yl)piperazin-1-yl]pyrimidin-2-yl}morpholine] | ≤ 1
8 | CC(C)c1cccc(-c2cc(N3CCN(c4ncccc4C(F)(F)F)C[C@H]3C)nc(N3CCOCC3)n2)c1 [Example 501, 4-(4-(3-isopropylphenyl)-6-{(2R)-2-methyl-4-[3-(trifluoromethyl)pyridin-2-yl]piperazin-1-yl}pyrimidin-2-yl)morpholine] | ≤ 1
9 | CC(C)c1cccc(-c2cc(N3CCN(c4ncccc4Cl)C[C@H]3C)nc(N3CCOCC3)n2)c1 [Example 502, 4-[4-[(2R)-4-(3-chloropyridin-2-yl)-2-methylpiperazin-1-yl]-6-(3-isopropylphenyl)pyrimidin-2-yl]morpholine] | ≤ 1
10 | CC(C)c1ccc(-c2cc(N3CCN(c4ncccc4C#N)C[C@H]3C)nc(N3CCOCC3)n2)cc1 [Example 503, 2-{(3R)-4-[6-(4-isopropylphenyl)-2-morpholin-4-ylpyrimidin-4-yl]-3-methylpiperazin-1-yl}nicotinonitrile] | ≤ 1
11 | Cc1cccnc1N1CCN(c2cc(-c3ccc(C(C)C)cc3)nc(N3CCOCC3)n2)[C@H](C)C1 [Example 504, 4-{4-(4-isopropylphenyl)-6-[(2R)-2-methyl-4-(3-methylpyridin-2-yl)piperazin-1-yl]pyrimidin-2-yl}morpholine] | ≤ 1
12 | CC(C)c1ccc(-c2cc(N3CCN(c4ncccc4Cl)C[C@H]3C)nc(N3CCOCC3)n2)cc1 [Example 505, 4-[4-[(2R)-4-(3-chloropyridin-2-yl)-2-methylpiperazin-1-yl]-6-(4-isopropylphenyl)pyrimidin-2-yl]morpholine] | ≤ 1
13 | Cc1ccc(-c2cc(N3CCN(c4ncccc4C#N)C[C@H]3C)nc(N3CCOCC3)n2)cc1C [Example 506, 2-{(3R)-4-[6-(3,4-dimethylphenyl)-2-morpholin-4-ylpyrimidin-4-yl]-3-methylpiperazin-1-yl}nicotinonitrile] | ≤ 1
14 | Cc1ccc(-c2cc(N3CCN(c4ncccc4C)C[C@H]3C)nc(N3CCOCC3)n2)cc1C [Example 507, 4-[4-(3,4-dimethylphenyl)-6-[(2R)-2-methyl-4-(3-methylpyridin-2-yl)piperazin-1-yl]pyrimidin-2-yl}morpholine] | ≤ 1
15 | Cc1ccc(-c2cc(N3CCN(c4ncccc4Cl)C[C@H]3C)nc(N3CCOCC3)n2)cc1C [Example 508, 4-[4-[(2R)-4-(3-chloropyridin-2-yl)-2-methylpiperazin-1-yl]-6-(3,4-dimethylphenyl)pyrimidin-2-yl]morpholine] | ≤ 1
16 | CCc1ccc(-c2cc(N3CCN(c4ncccc4C#N)C[C@H]3C)nc(N3CCOCC3)n2)cc1 [Example 509, 2-{(3R)-4-[6-(4-ethylphenyl)-2-morpholin-4-ylpyrimidin-4-yl]-3-methylpiperazin-1-yl}nicotinonitrile] | ≤ 1

Row | SMILES | IC50 [µM]
17 | CCc1ccc(-c2cc(N3CCN(c4ncccc4C)C[C@H]3C)nc(N3CCOCC3)n2)cc1 [Example 510, 4-{4-(4-ethylphenyl)-6-[(2R)-2-methyl-4-(3-methylpyridin-2-yl)piperazin-1-yl]pyrimidin-2-yl}morpholine] | ≤ 1
18 | CCc1ccc(-c2cc(N3CCN(c4ncccc4Cl)C[C@H]3C)nc(N3CCOCC3)n2)cc1 [Example 511, 4-[4-[(2R)-4-(3-chloropyridin-2-yl)-2-methylpiperazin-1-yl]-6-(4-ethylphenyl)pyrimidin-2-yl]morpholine] | ≤ 1
19 | CCCc1ccc(-c2cc(N3CCN(c4ncccc4C#N)C[C@H]3C)nc(N3CCOCC3)n2)cc1 [Example 512, 2-{(3R)-3-methyl-4-[2-morpholin-4-yl-6-(4-propylphenyl)pyrimidin-4-yl]piperazin-1-yl}nicotinonitrile] | ≤ 1
20 | CCCc1ccc(-c2cc(N3CCN(c4ncccc4Cl)C[C@H]3C)nc(N3CCOCC3)n2)cc1 [Example 513, 4-[4-[(2R)-4-(3-chloropyridin-2-yl)-2-methylpiperazin-1-yl]-6-(4-propylphenyl)pyrimidin-2-yl]morpholine] | ≤ 1
21 | CCc1cccc(-c2cc(N3CCN(c4ncccc4C#N)C[C@H]3C)nc(N3CCOCC3)n2)c1 [Example 514, 2-{(3R)-4-[6-(3-ethylphenyl)-2-morpholin-4-ylpyrimidin-4-yl]-3-methylpiperazin-1-yl}nicotinonitrile] | ≤ 1
22 | CCc1cccc(-c2cc(N3CCN(c4ncccc4C)C[C@H]3C)nc(N3CCOCC3)n2)c1 [Example 515, 4-{4-(3-ethylphenyl)-6-[(2R)-2-methyl-4-(3-methylpyridin-2-yl)piperazin-1-yl]pyrimidin-2-yl}morpholine] | ≤ 1
23 | CCc1cccc(-c2cc(N3CCN(c4ncccc4C(F)(F)F)C[C@H]3C)nc(N3CCOCC3)n2)c1 [Example 516, 4-(4-(3-ethylphenyl)-6-{(2R)-2-methyl-4-[3-(trifluoromethyl)pyridin-2-yl]piperazin-1-yl}pyrimidin-2-yl)morpholine] | ≤ 1
24 | CCc1cccc(-c2cc(N3CCN(c4ncccc4Cl)C[C@H]3C)nc(N3CCOCC3)n2)c1 [Example 517, 4-[4-[(2R)-4-(3-chloropyridin-2-yl)-2-methylpiperazin-1-yl]-6-(3-ethylphenyl)pyrimidin-2-yl]morpholine] | ≤ 1
25 | C[C@@H]1CN(c2ncccc2C#N)CCN1c1cc(-c2ccc(C(C)(C)C)cc2)nc(N2CCOCC2)n1 [Example 518, 2-{(3R)-4-[6-(4-tert-butylphenyl)-2-morpholin-4-ylpyrimidin-4-yl]-3-methylpiperazin-1-yl}nicotinonitrile] | ≤ 1
26 | C[C@@H]1CN(c2ncccc2C(F)(F)F)CCN1c1cc(-c2ccc(C(C)(C)C)cc2)nc(N2CCOCC2)n1 [Example 519, 4-(4-(4-tert-butylphenyl)-6-{(2R)-2-methyl-4-[3-(trifluoromethyl)pyridin-2-yl]piperazin-1-yl}pyrimidin-2-yl)morpholine] | ≤ 1
27 | C[C@@H]1CN(c2ncccc2Cl)CCN1c1cc(-c2ccc(C(C)(C)C)cc2)nc(N2CCOCC2)n1 [Example 520, 4-{4-(4-tert-butylphenyl)-6-[(2R)-4-(3-chloropyridin-2-yl)-2-methylpiperazin-1-yl]pyrimidin-2-yl}morpholine] | ≤ 1
28 | Cc1cccnc1N1CCN(c2cc(-c3cccc4ccccc34)nc(N3CCOCC3)n2)[C@H](C)C1 [Example 521, 4-[4-[(2R)-2-methyl-4-(3-methylpyridin-2-yl)piperazin-1-yl]-6-(1-naphthyl)pyrimidin-2-yl]morpholine] | ≤ 1
29 | Cc1cccnc1N1CCN(c2cc(-c3ccc(C)c4ccccc34)nc(N3CCOCC3)n2)[C@H](C)C1 [Example 522, 4-[4-[(2R)-2-methyl-4-(3-methylpyridin-2-yl)piperazin-1-yl]-6-(4-methyl-1-naphthyl)pyrimidin-2-yl]morpholine] | ≤ 1
30 | COc1cccc(-c2cc(N3CCN(c4ncccc4C#N)C[C@H]3C)nc(N3CCOCC3)n2)c1 [Example 523, 2-{(3R)-4-[6-(3-methoxyphenyl)-2-morpholin-4-ylpyrimidin-4-yl]-3-methylpiperazin-1-yl}nicotinonitrile] | ≤ 1
31 | COc1cccc(-c2cc(N3CCN(c4ncccc4C)C[C@H]3C)nc(N3CCOCC3)n2)c1 [Example 524, 4-{4-(3-methoxyphenyl)-6-[(2R)-2-methyl-4-(3-methylpyridin-2-yl)piperazin-1-yl]pyrimidin-2-yl}morpholine] | ≤ 1
32 | COc1cccc(-c2cc(N3CCN(c4ncccc4C(F)(F)F)C[C@H]3C)nc(N3CCOCC3)n2)c1 [Example 525, 4-(4-(3-methoxyphenyl)-6-{(2R)-2-methyl-4-[3-(trifluoromethyl)pyridin-2-yl]piperazin-1-yl}pyrimidin-2-yl)morpholine] | ≤ 1
